Experimental data as given in patent publication US4605614A, “Method for measuring plasmin” (Nitto Boseki Co., Ltd., priority 1981, dated 1986).

Experiments:
plasmin (pig) = plasmin (pig) (Sus scrofa, UniProt P06867); assay: Km, Vmax and Vmax/Km of substrates for plasmin (pig); assay type: biochemical, Porcine (pig); details: for Vmax (× 10^-7): TABLE 2, CHA substrates, plasmin (pig), 2,6-xylenol 615 nm; for Relative ratio: TABLE 2, V/Km of each sample divided by that of S2251 (so in the source)
Excerpt: The substrates produced by the above examples were used in the measurement of plasmin as follows: The principle of this measurement comprises quantitatively analyzing the decomposition product p-nitroaniline or 3-carboxy-4-hydroxyaniline produced by the enzymatic hydrolysis, by measuring the absorbance (O.D.) directly at 405 nm in the case of p-nitroaniline and, in the case of the 3-carboxy-4-hydroxyaniline at 615 nm after condensing it with 2,6-xylenol in the presence of an oxidant to develop a color.
For the measurements of these constants, the following method is adopted:
The enzyme and the substrate are mixed in a buffer solution and subjected to the hydrolysis for 30 seconds. The concentration of the substrate [S] is changed and the enzyme concentration is maintained constant. By measuring the absorbance (O.D.), the initial velocity of the hydrolysis can be determined. Where 1/V is plotted as a function of 1/[S], there is obtained a Lineweaver and Burk's linea from which graph the Vmax and Km can be determined.

Thrombin (TH) = Thrombin (TH) (Bos taurus, UniProt P00735); assay type: biochemical, Cow; details: TABLE 4, CHA substrates; So = 0.54; pH 8.4; 37° C., 10 minutes; 1.0 NIH/ml
Description: (§1) The specificities of the novelly synthesized substrates were tested by reacting them with various enzymes respectively.
(§2) (1) Substrate solution concentration: 35 mmole/liter H2 O
(§3) (2) Buffer: Tris-hydrochloric acid buffer 50 mmole/l, NaCl 150 mmole/l (0.875%) was employed, and the pH for reaction was as follows depending on the enzyme.
(§4) 2,6-Xylenol 7.0 mmole+NaIO4 1.5 mmole/0.2N KOH
(§5) 0.5 ml of the buffer solution and 0.05 ml of the enzyme reagent were taken into a silicon-treated hard glass test tube or a plastic test tube, and preheated in a constant temperature bath at 37° C. for 5 minutes. Thereafter, 0.1 ml of the substrate solution was added to effect the enzymatic reaction at 37° C. for 10 minutes. Exactly after 10 minutes, 2.5 ml of the reaction terminating solution or the terminating and color developing reagent solution was added to terminate the enzymatic reaction, and after allowing to stand at 25° C. for 10 minutes, the absorbance at 405 nm or 645 nm was measured, in which [drawing 49]

Plasmin (PL) = Plasmin (PL) (Sus scrofa, UniProt P06867); assay type: biochemical, Pig; details: TABLE 4, CHA substrates; So = 0.54; pH 7.4; 37° C., 10 minutes; 0.32 CU/ml
Description: as §2, §3
Plasmin Pig Sigma (U.S.A.)
as §5

Kallikrein (KL) = Kallikrein (KL) (Sus scrofa, UniProt P00752); assay type: biochemical, Pig; details: TABLE 4, CHA substrates; So = 0.54; pH 7.9; 37° C., 10 minutes; 1.0 BAEE-U/ml
Description: as §1, §2, §3, §4, §5

Factor-Xa (FXa) = Factor-Xa (FXa) (Bos taurus, UniProt P00743); assay type: biochemical, Cow; details: TABLE 4, CHA substrates; So = 0.54; pH 8.4; 37° C., 10 minutes; 0.4 U/ml
Description: as §1, §2, §3, §4, §5

Urokinase (UK) = Urokinase (UK) (Homo sapiens, UniProt P00749); assay type: biochemical; details: TABLE 4, CHA substrates; So = 0.54; pH 8.2; 37° C., 10 minutes; 1000 IU/ml
Description: as §1, §2, §3, §4, §5

Kallikrein (KL), sequence (P00752 8-246): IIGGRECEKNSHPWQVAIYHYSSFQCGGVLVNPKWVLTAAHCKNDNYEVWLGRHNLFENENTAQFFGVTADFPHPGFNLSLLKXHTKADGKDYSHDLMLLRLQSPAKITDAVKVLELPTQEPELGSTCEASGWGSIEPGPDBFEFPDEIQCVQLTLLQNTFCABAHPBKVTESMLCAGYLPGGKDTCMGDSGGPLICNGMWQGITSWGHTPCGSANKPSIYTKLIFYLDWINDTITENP
Plasmin (PL), sequence (P06867 97-809): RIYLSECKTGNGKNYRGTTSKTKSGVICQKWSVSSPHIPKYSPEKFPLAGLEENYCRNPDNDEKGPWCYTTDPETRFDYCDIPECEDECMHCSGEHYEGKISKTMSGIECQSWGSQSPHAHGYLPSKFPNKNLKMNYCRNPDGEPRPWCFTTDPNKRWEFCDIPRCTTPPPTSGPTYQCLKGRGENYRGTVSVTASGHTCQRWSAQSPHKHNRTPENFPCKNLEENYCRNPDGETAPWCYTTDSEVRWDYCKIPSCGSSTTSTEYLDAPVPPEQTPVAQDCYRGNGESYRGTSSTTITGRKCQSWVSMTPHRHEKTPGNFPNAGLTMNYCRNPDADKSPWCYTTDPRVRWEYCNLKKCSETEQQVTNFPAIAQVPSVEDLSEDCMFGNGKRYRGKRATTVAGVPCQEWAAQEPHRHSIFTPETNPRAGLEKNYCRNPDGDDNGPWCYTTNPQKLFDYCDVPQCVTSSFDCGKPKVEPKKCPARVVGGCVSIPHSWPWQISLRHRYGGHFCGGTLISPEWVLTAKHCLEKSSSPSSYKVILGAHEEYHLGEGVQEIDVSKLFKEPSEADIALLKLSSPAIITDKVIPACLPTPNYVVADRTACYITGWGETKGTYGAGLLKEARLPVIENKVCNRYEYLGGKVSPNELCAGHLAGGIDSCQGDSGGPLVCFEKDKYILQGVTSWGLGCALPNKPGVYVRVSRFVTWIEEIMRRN
plasmin (pig), sequence (P06867 97-809): as above
Factor-Xa (FXa), sequence (P00743 41-180): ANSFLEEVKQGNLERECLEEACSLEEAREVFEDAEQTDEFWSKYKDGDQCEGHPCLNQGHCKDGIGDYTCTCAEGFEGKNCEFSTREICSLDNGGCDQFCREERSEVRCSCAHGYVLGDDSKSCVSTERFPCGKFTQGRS
Factor-Xa (FXa), sequence (P00743 234-492): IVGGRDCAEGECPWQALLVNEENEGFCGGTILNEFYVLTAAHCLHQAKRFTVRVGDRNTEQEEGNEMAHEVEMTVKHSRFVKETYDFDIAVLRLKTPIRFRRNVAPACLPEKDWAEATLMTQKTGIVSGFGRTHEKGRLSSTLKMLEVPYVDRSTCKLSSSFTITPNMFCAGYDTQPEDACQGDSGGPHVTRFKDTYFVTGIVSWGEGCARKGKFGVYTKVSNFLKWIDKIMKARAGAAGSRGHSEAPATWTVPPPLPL
Thrombin (TH), sequence (P00735 44-625): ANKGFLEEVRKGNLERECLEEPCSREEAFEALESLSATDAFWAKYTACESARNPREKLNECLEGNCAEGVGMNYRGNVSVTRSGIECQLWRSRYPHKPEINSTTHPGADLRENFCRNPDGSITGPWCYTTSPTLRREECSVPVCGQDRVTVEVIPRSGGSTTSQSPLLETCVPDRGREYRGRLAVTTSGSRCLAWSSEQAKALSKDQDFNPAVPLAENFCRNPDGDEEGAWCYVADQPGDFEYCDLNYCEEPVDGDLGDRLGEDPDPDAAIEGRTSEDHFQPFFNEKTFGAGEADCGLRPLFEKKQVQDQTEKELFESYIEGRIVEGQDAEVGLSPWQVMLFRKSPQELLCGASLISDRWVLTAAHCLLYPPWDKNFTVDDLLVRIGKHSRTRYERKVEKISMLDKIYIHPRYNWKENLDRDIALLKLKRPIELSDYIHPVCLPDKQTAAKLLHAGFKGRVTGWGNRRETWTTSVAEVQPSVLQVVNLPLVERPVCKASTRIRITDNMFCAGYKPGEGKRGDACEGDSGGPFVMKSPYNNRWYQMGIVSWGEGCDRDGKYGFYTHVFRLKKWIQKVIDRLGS

Row | SMILES | Vmax (× 10^-7) (plasmin (pig)) | Relative ratio (plasmin (pig)) | Selectivity TH, absorbance (O.D.) at 645 nm (Thrombin (TH)) [O.D.] | Selectivity PL, absorbance (O.D.) at 645 nm (Plasmin (PL)) [O.D.] | Selectivity KL, absorbance (O.D.) at 645 nm (Kallikrein (KL)) [O.D.] | Selectivity FXa, absorbance (O.D.) at 645 nm (Factor-Xa (FXa)) [O.D.] | Selectivity UK, absorbance (O.D.) at 645 nm (Urokinase (UK)) [O.D.]
1 | CC(C)C[C@H](NC(=O)[C@H](N)C(C)C)C(=O)N[C@@H](CCCCN)C(=O)Nc1ccc(O)c(C(=O)O)c1 [NPC-1, HD-ValLeuLysCHA.2HBr] | 3.556 × 10^-7 | 1.000 | 0 | 0.013 | 0.002 | 0.002 | 0
2 | CC(C)[C@@H](N)C(=O)N[C@@H](Cc1ccccc1)C(=O)N[C@@H](CCCCN)C(=O)Nc1ccc(O)c(C(=O)O)c1 [NPC-2, HD-ValPheLysCHA.2HCl] | 8.266 × 10^-7 | 11.811 | 0.002 | 0.090 | 0.006 | 0.004 | 0.002
3 | NCCCC[C@@H](N)C(=O)N[C@@H](Cc1ccccc1)C(=O)N[C@@H](CCCCN)C(=O)Nc1ccc(O)c(C(=O)O)c1 [NPC-3] | 7.506 × 10^-7 | 30.432 | 0 | 0.096 | 0.004 | 0.002 | 0
4 | CC(=O)NCCCC[C@@H](N)C(=O)N[C@@H](Cc1ccccc1)C(=O)N[C@@H](CCCCN)C(=O)Nc1ccc(O)c(C(=O)O)c1 [NPC-4, HD-Lys(AC)PheLysCHA.2HCl] | 10.940 × 10^-7 | 39.351 | 0.001 | 0.144 | 0.006 | 0.002 | 0
5 | Cc1ccc(S(=O)(=O)NCCCC[C@H](N)C(=O)N[C@@H](Cc2ccccc2)C(=O)N[C@@H](CCCCN)C(=O)Nc2ccc(O)c(C(=O)O)c2)cc1 [NPC-5, HL-Lys(Tos)PheLysCHA.2HCl] | 3.159 × 10^-7 | 9.739 | 0 | 0.051 | 0.001 | 0.002 | 0
6 | Cc1ccc(C(=O)NCCCC[C@@H](N)C(=O)N[C@@H](Cc2ccccc2)C(=O)N[C@@H](CCCCN)C(=O)Nc2ccc(O)c(C(=O)O)c2)cc1 [NPC-6, HD-Lys(Toc)PheLysCHA.2HCl] | 11.670 × 10^-7 | 137.973 | 0 | 0.147 | 0.007 | 0.001 | 0
7 | Cc1ccc(S(=O)(=O)NCCCC[C@@H](N)C(=O)N[C@@H](Cc2ccccc2)C(=O)N[C@@H](CCCCN)C(=O)Nc2ccc(O)c(C(=O)O)c2)cc1 [NPC-7, 2HCl.H-D-Lys(ToS)-L-Phe-L-Lys-CHA] | 29.417 × 10^-7 | 128.468 | 0 | 0.420 | 0.007 | 0.001 | 0
8 | NCCCC[C@H](NC(=O)[C@H](Cc1ccccc1)NC(=O)[C@H](N)CCCCNS(=O)(=O)c1ccc2ccccc2c1)C(=O)Nc1ccc(O)c(C(=O)O)c1 [NPC-8, HD-Lys(NaS)PheLysCHA.2HCl] | 30.814 × 10^-7 | 154.748 | 0 | 0.498 | 0.011 | 0.002 | 0.002
9 | NCCCC[C@H](NC(=O)[C@H](Cc1ccccc1)NC(=O)[C@H](N)CCCCNC(=O)c1ccc2ccccc2c1)C(=O)Nc1ccc(O)c(C(=O)O)c1 [NPC-9, HD-Lys(NaC)PheLysCHA.2HCl] | 13.827 × 10^-7 | 38.270 | 0 | 0.120 | 0.027 | 0.001 | 0
10 | Cc1cc(C)c(S(=O)(=O)NCCCC[C@@H](N)C(=O)N[C@@H](Cc2ccccc2)C(=O)N[C@@H](CCCCN)C(=O)Nc2ccc(O)c(C(=O)O)c2)c(C)c1 [NPC-10, HD-Lys(Mst)PheLysCHA.2HCl] | 28.445 × 10^-7 | 94.369 | 0 | 0.344 | 0.010 | 0.002 | 0.001
11 | Cc1ccc(S(=O)(=O)Oc2ccc(C[C@@H](N)C(=O)N[C@@H](Cc3ccccc3)C(=O)N[C@@H](CCCCN)C(=O)Nc3ccc(O)c(C(=O)O)c3)cc2)cc1 [NPC-11, HD-Tyr(Tos)PheLysCHA.2HCl] | 17.018 × 10^-7 | 99.532 | 0.001 | 0.277 | 0.012 | 0.003 | 0.003
12 | Cc1ccc(S(=O)(=O)NCCCC[C@@H](N)C(=O)N[C@@H](CC(C)C)C(=O)N[C@@H](CCCCN)C(=O)Nc2ccc(O)c(C(=O)O)c2)cc1 [NPC-12, HD-Lys(Tos)LeuLysCHA.2HBr] | 25.679 × 10^-7 | 23.135 | 0.001 | 0.051 | 0.007 | 0.002 | 0.001
13 | Cc1ccc(S(=O)(=O)Oc2ccc(C[C@@H](N)C(=O)N[C@@H](CC(C)C)C(=O)N[C@@H](CCCCN)C(=O)Nc3ccc(O)c(C(=O)O)c3)cc2)cc1 [NPC-13, HD-Tyr(Tos)LeuLysCHA.2HCl] | 17.991 × 10^-7 | 11.225 | 0.002 | 0.041 | 0.004 | 0.001 | 0.001
14 | NCCCC[C@H](NC(=O)[C@H](Cc1ccccc1)NC(=O)[C@H](N)CCCCNC(=O)c1ccccc1)C(=O)Nc1ccc(O)c(C(=O)O)c1 [NPC-14] | 33.794 × 10^-7 | 91.036 | 0 | 0.417 | 0.016 | 0.002 | 0.001
15 | NCCCC[C@H](NC(=O)[C@H](Cc1ccccc1)NC(=O)[C@H](N)CCCCNS(=O)(=O)c1ccccc1)C(=O)Nc1ccc(O)c(C(=O)O)c1 [NPC-15] | 37.927 × 10^-7 | 64.180 | 0 | 0.480 | 0.010 | 0.002 | 0
